Results from patent publication US7078403B1, “Antiviral agents” (Biota Scientific Management Pty Ltd., priority 1999, dated 2006).

system: human embryo lung (MRC-5) cells; assay: Cytotoxicity (CC50 or MTC) in uninfected MRC-5 cells; settings: unit not given

SMILES | Activity on Rhinovirus Type 1A MTC
CON=Cc1ccc(OCCCC2CCN(c3cccnn3)CC2)cc1 [Compound 102] | >1
Cc1ccc(N2CCC(CCOc3ccc(C=NOCC(F)(F)F)cc3)CC2)nn1 [Compound 59] | 0.56
CCCON=Cc1ccc(OCCC2CCN(c3ccc(C)nn3)CC2)cc1 [Compound 85] | >1
CCON=Cc1cccc(OCCN2CCN(c3ccc(C)nn3)CC2)c1 [Compound 71] | >1
C=CCON=Cc1cccc(OCCCC2CCN(c3ccc(C)nn3)CC2)c1 [Compound 99] | >1
CON=Cc1cccc(OCCCC2CCN(c3ccc(Cl)nn3)CC2)c1 [Compound 91] | >1
CCON=Cc1cc(C)c(OCCCc2cc(C3CC3)no2)c(C)c1 [Compound 137] | >1
CON=Cc1ccc(OCCCC2CCN(c3ccc(Cl)nn3)CC2)cc1 [Compound 89] | >1
CCON=Cc1cccc(OCCCC2CCN(c3ccc(C)nn3)CC2)c1 [Compound 98] | >1
CON=Cc1cccc(OCC2CCN(c3ccc(Cl)nn3)CC2)c1 [Compound 60] | >1
CCON=Cc1ccc(OCCC2CCN(c3ccc(C(F)(F)F)nn3)CC2)cc1 [Compound 58] | >1
CCON=Cc1cccc(OCCCC2CCN(c3ccc(Cl)nn3)CC2)c1 [Compound 92] | >1
CON=Cc1cc(O)cc(OCCC2CCN(c3ccc(Cl)nn3)CC2)c1 [Compound 38] | >1
C=CCON=Cc1ccc(OCCC2CCCN(c3ccc(Cl)nn3)C2)cc1 (stereo not drawn) [Compound 141] | >1
C=CCON=Cc1ccc(OCCC2CCN(c3ccc(C)nn3)CC2)c(C)c1 [Compound 53] | 0.667
CCON=Cc1cccc(OCCN2CCN(c3ccc(Cl)nn3)CC2)c1 [Compound 76] | >1
CON=C(C)c1cc(C)c(OCCCc2cc(C)no2)c(C)c1 [Compound 109] | >1
CCO/N=C/c1ccc(Oc2cnc3cc(Cl)ccc3n2)cc1 [Compound 211] | >10
CCON=Cc1cccc(OCC2CCN(c3ccc(Cl)nn3)CC2)c1 [Compound 61] | >1
CCON=Cc1ccc(OCCC2CCN(c3ccc(-c4ccccc4)nn3)CC2)cc1 [Compound 56] | >10
C=CCON=Cc1ccc(OCCN2CCN(c3ccc(C)nn3)CC2)cc1 [Compound 69] | >1
C=CCON=Cc1cccc(OCC2CCN(c3ccc(Cl)nn3)CC2)c1 [Compound 62] | >1
CON=Cc1cccc(OCCN2CCN(c3ccc(C)nn3)CC2)c1 [Compound 70] | >1
CCCON=Cc1ccc(OCCC2CCN(c3ccc(C)nn3)CC2)c(C)c1 [Compound 54] | 0.663

system: HRV type 1A; assay: Inhibition of viral cytopathic effect (CPE), visual scoring or neutral red, HRV type 1A in MRC-5 cells; assay type: cell-based, human rhinovirus; settings: HRV type 1A in MRC-5 cells, CPE inhibition

SMILES | Activity on Rhinovirus Type 1A EC50 [µg/mL]
CON=Cc1ccc(OCCCC2CCN(c3cccnn3)CC2)cc1 [Compound 102] | 0.059
Cc1ccc(N2CCC(CCOc3ccc(C=NOCC(F)(F)F)cc3)CC2)nn1 [Compound 59] | 0.162
CCCON=Cc1ccc(OCCC2CCN(c3ccc(C)nn3)CC2)cc1 [Compound 85] | 0.08
CCON=Cc1cccc(OCCN2CCN(c3ccc(C)nn3)CC2)c1 [Compound 71] | 0.05
C=CCON=Cc1cccc(OCCCC2CCN(c3ccc(C)nn3)CC2)c1 [Compound 99] | 0.205
CON=Cc1cccc(OCCCC2CCN(c3ccc(Cl)nn3)CC2)c1 [Compound 91] | 0.02
CCON=Cc1cc(C)c(OCCCc2cc(C3CC3)no2)c(C)c1 [Compound 137] | 0.054
CON=Cc1ccc(OCCCC2CCN(c3ccc(Cl)nn3)CC2)cc1 [Compound 89] | 0.005
CCON=Cc1cccc(OCCCC2CCN(c3ccc(C)nn3)CC2)c1 [Compound 98] | 0.255
CON=Cc1cccc(OCC2CCN(c3ccc(Cl)nn3)CC2)c1 [Compound 60] | 0.183
CCON=Cc1ccc(OCCC2CCN(c3ccc(C(F)(F)F)nn3)CC2)cc1 [Compound 58] | 0.498
CCON=Cc1cccc(OCCCC2CCN(c3ccc(Cl)nn3)CC2)c1 [Compound 92] | 0.20
CON=Cc1cc(O)cc(OCCC2CCN(c3ccc(Cl)nn3)CC2)c1 [Compound 38] | 0.69
C=CCON=Cc1ccc(OCCC2CCCN(c3ccc(Cl)nn3)C2)cc1 (stereo not drawn) [Compound 141] | 0.166
C=CCON=Cc1ccc(OCCC2CCN(c3ccc(C)nn3)CC2)c(C)c1 [Compound 53] | <0.003
CCON=Cc1cccc(OCCN2CCN(c3ccc(Cl)nn3)CC2)c1 [Compound 76] | 0.01
CON=C(C)c1cc(C)c(OCCCc2cc(C)no2)c(C)c1 [Compound 109] | 0.053
CCO/N=C/c1ccc(Oc2cnc3cc(Cl)ccc3n2)cc1 [Compound 211] | 0.07
CCON=Cc1cccc(OCC2CCN(c3ccc(Cl)nn3)CC2)c1 [Compound 61] | 0.058
CCON=Cc1ccc(OCCC2CCN(c3ccc(-c4ccccc4)nn3)CC2)cc1 [Compound 56] | 2.31
C=CCON=Cc1ccc(OCCN2CCN(c3ccc(C)nn3)CC2)cc1 [Compound 69] | 0.18
C=CCON=Cc1cccc(OCC2CCN(c3ccc(Cl)nn3)CC2)c1 [Compound 62] | 0.067
CON=Cc1cccc(OCCN2CCN(c3ccc(C)nn3)CC2)c1 [Compound 70] | 0.05
CCCON=Cc1ccc(OCCC2CCN(c3ccc(C)nn3)CC2)c(C)c1 [Compound 54] | 0.007

same assay, conditions: selectivity index = CC50 or MTC divided by EC50; HRV type 1A, MRC-5 cells

SMILES | Activity on Rhinovirus Type 1A SI
CON=Cc1ccc(OCCCC2CCN(c3cccnn3)CC2)cc1 [Compound 102] | >17
Cc1ccc(N2CCC(CCOc3ccc(C=NOCC(F)(F)F)cc3)CC2)nn1 [Compound 59] | 3.4
CCCON=Cc1ccc(OCCC2CCN(c3ccc(C)nn3)CC2)cc1 [Compound 85] | >12
CCON=Cc1cccc(OCCN2CCN(c3ccc(C)nn3)CC2)c1 [Compound 71] | >18
C=CCON=Cc1cccc(OCCCC2CCN(c3ccc(C)nn3)CC2)c1 [Compound 99] | >4
CON=Cc1cccc(OCCCC2CCN(c3ccc(Cl)nn3)CC2)c1 [Compound 91] | >46
CCON=Cc1cc(C)c(OCCCc2cc(C3CC3)no2)c(C)c1 [Compound 137] | >18
CON=Cc1ccc(OCCCC2CCN(c3ccc(Cl)nn3)CC2)cc1 [Compound 89] | >174
CCON=Cc1cccc(OCCCC2CCN(c3ccc(C)nn3)CC2)c1 [Compound 98] | >3
CON=Cc1cccc(OCC2CCN(c3ccc(Cl)nn3)CC2)c1 [Compound 60] | >17
CCON=Cc1ccc(OCCC2CCN(c3ccc(C(F)(F)F)nn3)CC2)cc1 [Compound 58] | >2
CCON=Cc1cccc(OCCCC2CCN(c3ccc(Cl)nn3)CC2)c1 [Compound 92] | >5
CON=Cc1cc(O)cc(OCCC2CCN(c3ccc(Cl)nn3)CC2)c1 [Compound 38] | >1.45
C=CCON=Cc1ccc(OCCC2CCCN(c3ccc(Cl)nn3)C2)cc1 (stereo not drawn) [Compound 141] | >6
C=CCON=Cc1ccc(OCCC2CCN(c3ccc(C)nn3)CC2)c(C)c1 [Compound 53] | >208
CCON=Cc1cccc(OCCN2CCN(c3ccc(Cl)nn3)CC2)c1 [Compound 76] | >98
CON=C(C)c1cc(C)c(OCCCc2cc(C)no2)c(C)c1 [Compound 109] | >18.8
CCO/N=C/c1ccc(Oc2cnc3cc(Cl)ccc3n2)cc1 [Compound 211] | >151
CCON=Cc1cccc(OCC2CCN(c3ccc(Cl)nn3)CC2)c1 [Compound 61] | >14
CCON=Cc1ccc(OCCC2CCN(c3ccc(-c4ccccc4)nn3)CC2)cc1 [Compound 56] | >3
C=CCON=Cc1ccc(OCCN2CCN(c3ccc(C)nn3)CC2)cc1 [Compound 69] | >5
C=CCON=Cc1cccc(OCC2CCN(c3ccc(Cl)nn3)CC2)c1 [Compound 62] | >14
CON=Cc1cccc(OCCN2CCN(c3ccc(C)nn3)CC2)c1 [Compound 70] | >16
CCCON=Cc1ccc(OCCC2CCN(c3ccc(C)nn3)CC2)c(C)c1 [Compound 54] | 91
